Earlier results, collected in patent US20190231888A1, “TEXAPHYRIN AND ANTITUMOR ANTIBIOTIC CONJUGATES” (priority 2016, published 2019).

Details: intravenous, determined in one study; cited from earlier work

lutetium texaphyrin
maximum tolerated dose: 5.2 mg/kg
